# According to patent publication US12612386B2, “Heteroaryl-triazole compounds as pesticides” (Bayer Aktiengesellschaft, priority 2020, dated 2026):
# Tests used:
# Type in all cases: in vivo
# [1] = tested on: green peach aphid (Myzus persicae); assay: Myzus persicae spray test (MYZUPE); conditions: 120 h, 100 g/ha, after 5 days
# Method in brief: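 Chinese cabbage leaf disks infested with all instars of Myzus persicae were sprayed with compound formulated in acetone/dimethylformamide and diluted in water with 1000 ppm alkylarylpolyglycol ether emulsifier. Percent mortality was scored after 5 days, 100% meaning all aphids killed.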
# [2] = tested on: adult brown dog ticks (Rhipicephalus sanguineus); assay: Rhipicephalus sanguineus in-vitro contact test, adult brown dog ticks; conditions: 48 h, read-out: efficacy (ticks dead or moribund)
# Protocol: Rhipicephalus sanguineus—In-Vitro Contact Tests with Adult Brown Dog Ticks
# (§1) 9 mg compound is solved in 1 mL acetone and diluted with acetone to the desired concentration. 250 μL of the test solution is filled in 25 mL glass test tubes and homogeneously distributed on the inner walls by rotation and tilting on a shaking device (2 h at 30 rpm). With a compound concentration of 900 ppm, an inner surface of 44.7 cm^2 and a homogeneous distribution, a dose of 5 μg/cm^2 is achieved.
# (§2) After the solvent has evaporated, each test tube is filled with 5-10 adult brown dog ticks (Rhipicephalus sanguineus), closed with a perforated lid and incubated in a lying position at room temperature and relative humidity. After 48 hours efficacy is determined. The ticks are patted on the ground of the tubes and are incubated on a heating plate at 45-50° C. for at most 5 minutes. Immotile or uncoordinated moving ticks, which are not able to escape the heat by climbing upwards, are marked as dead or moribund.
# An efficacy of 100% means all ticks are dead or moribund; 0% means no ticks are dead or moribund.
# [3] = tested on: fall armyworm larvae (Spodoptera frugiperda); assay: whole plant or invertebrate; conditions: 168 h
# Method in brief: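 Maize leaf sections sprayed with compound in acetone/DMF with alkylarylpolyglycol ether emulsifier diluted in water, then infested with fall armyworm larvae once dry. Mortality (%) scored after 7 days; 100% = all caterpillars killed.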
# [4] = tested on: larvae of the southern green stink bug (Nezara viridula); assay: whole plant or invertebrate; conditions: 96 h
# Method in brief: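 Compound in acetone/DMF was diluted in water with 1000 ppm alkylarylpolyglycol ether emulsifier. Barley plants were sprayed with it, then infested with Nezara viridula larvae. Mortality % was scored after 4 days (100% = all killed).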
# [5] = tested on: larvae of the banded cucumber beetle (Diabrotica balteata); assay: Diabrotica balteata spray test; conditions: 168 h, 100 g/ha (=32 μg/well), after 7 days, read-out: efficacy (seedling growth)
# Method in brief: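 Germinated wheat seeds on agar (5 per well) were sprayed with compound formulated in acetone/DMF and diluted in water with 1000 ppm emulsifier. Each unit was then infested with 10–20 larvae. Efficacy % was scored after 7 days as seedling growth relative to an untreated, uninfested control (100% = normal growth).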
# [6] = tested on: cattle tick larvae (Rhipicephalus microplus), strain Parkhurst, resistant against synthetic pyrethroids; assay: Rhipicephalus (Boophilus) microplus in-vitro contact test, larval cattle tick; conditions: 5 μg/cm^2 (=500 g/ha), after 48 hours
# Protocol: Rhipicephalus (Boophilus) Microplus—In-Vitro Contact Tests Larval Cattle Tick (Strain Parkhurst, Resistant Against Synthetic Pyrethroids)
# as §1
# After the solvent has evaporated, each test tube is filled with 20-50 cattle tick larvae (Rhipicephalus microplus), closed with a perforated lid and incubated in a horizontal position at 85% relative humidity and 27° C. in an incubator. After 48 hours efficacy is determined. The larvae are patted on the ground of the tubes and negative geotactic behavior is recorded.
# An efficacy of 100% means all larvae are dead or moribund; 0% means no larvae are dead or moribund.
# [7] = tested on: adult cat fleas (Ctenocephalides felis); assay: Ctenocephalides felis in-vitro contact test, adult cat flea; conditions: 5 μg/cm^2 (=500 g/ha), after 48 hours
# Protocol: Ctenocephalides felis—In-Vitro Contact Tests Adult Cat Flea
# as §1
# as §2, with “cat fleas (Ctenocephalides felis),” for “brown dog ticks (Rhipicephalus sanguineus),”, “fleas” for “ticks”, “fleas,” for “ticks,”
# An efficacy of 100% means all fleas are dead or moribund; 0% means no fleas are dead or moribund.
# [8] = tested on: adult mosquitoes Aedes aegypti strain MONHEIM; assay: Aedes aegypti test (AEDSAE surface treatment & contact assay); conditions: 24 hours after contact, read-out: efficacy (mortality); for mortality at 20 mg/m2: surface concentration 20 mg/m^2, 30 min exposure; for mortality at 4 mg/m2: surface concentration 4 mg/m^2, 30 min exposure
# Protocol: Aedes aegypti Test (AEDSAE Surface Treatment & Contact Assay)
# (§3) Solvent: Aceton+2000 ppm rapeseed oil methyl ester (RME)
# (§4) This solution is pipetted onto a glazed tile and after evaporation of the acetone, adult mosquitoes of the species Aedes aegypti strain MONHEIM are placed onto the dried surface. The exposure time is 30 minutes. Mortality in percent (%) is determined 24 hours after contact of the insects to the treated surface. 100% mortality means that all tested insects are dead, whereas 0% means that no insect died.
# [9] = tested on: adult flies Musca domestica strain WHO-N; assay: Musca domestica test (MUSCDO surface treatment & contact assay); conditions: 24 hours after contact, read-out: efficacy (mortality); for mortality at 20 mg/m2: surface concentration 20 mg/m^2, 30 min exposure
# Protocol: Musca domestica Test (MUSCDO Surface Treatment & Contact Assay)
# as §3
# as §4, with “flies” for “mosquitoes”, “Musca domestica” for “Aedes aegypti”, “WHO-N” for “MONHEIM”
# [10] = tested on: brown planthopper (Nilaparvata lugens); assay: Nilaparvata lugens spray test; conditions: 96 h
# Method in brief: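 Rice plants (Oryza sativa) sprayed with compound formulated in acetone/DMF with alkylarylpolyglycol ether emulsifier (1000 ppm in diluting water), then infested with planthoppers. Mortality (%) scored after 4 days; 100% = all insects killed, 0% = none killed.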
# [11] = tested on: adult mosquitoes Culex quinquefasciatus strain P00; assay: Culex quinquefasciatus test (CULXFA surface treatment & contact assay); conditions: 24 hours after contact, read-out: efficacy (mortality); for mortality at 20 mg/m2: surface concentration 20 mg/m^2, 30 min exposure
# Protocol: Culex quinquefasciatus Test (CULXFA Surface Treatment & Contact Assay)
# as §3
# as §4, with “Culex quinquefasciatus” for “Aedes aegypti”, “P00” for “MONHEIM”
# [12] = surface concentration 4 mg/m^2, 30 min exposure
SMILES,mortality at 100 g/ha [1] [%],"pest or weed control at 5 µg/cm2, 500 g/ha [2] [%]",mortality at 100 g/ha [3] [%],mortality at 100 g/ha [4] [%],mortality at 500 g/ha [4] [%],"pest or weed control at 32 µg/disc, 100 g/ha [5] [%]",efficacy (larvae dead or moribund) [6] [%],efficacy (fleas dead or moribund) [7] [%],mortality at 20 mg/m2 [8] [%],mortality at 20 mg/m2 [9] [%],mortality at 500 g/ha [10] [%],mortality at 4 mg/m2 [8] [%],mortality at 20 mg/m2 [11] [%],"mortality at 4 mg/m2 [9, 12] [%]","mortality at 4 mg/m2 [11, 12] [%]"
C[C@H](NC(=O)c1cc(Br)cc(OC(F)F)c1)c1ncnn1-c1cc(C#N)ncn1 [I-3],90,100,100,90,90,100,100,100,80 to 100,–,–,–,–,–,–
Cc1nc([C@H](C)NC(=O)c2cc(C(F)(F)F)cc(C(F)(F)F)c2)n(-c2cc(C#N)ncn2)n1 [I-5],90,100,100,–,–,100,100,90,80 to 100,–,–,–,–,–,–
"CC(NC(=O)c1cc(OC(F)(F)F)cc(C2CC2)c1)c1ncnn1-c1cc(C#N)ncn1 (stereo not drawn) [I-8, N-{1-[1-(6-cyanopyrimidin-4-yl)-1H-1,2,4-triazol-5-yl]ethyl}-3-cyclopropyl-5-(trifluoromethoxy)benzamide]",90,–,100,–,–,100,100,–,80 to 100,80 to 100,100,80 to 100,–,–,–
C[C@H](NC(=O)c1cc(OC(F)(F)F)cc(C2CC2)c1)c1ncnn1-c1cc(C#N)ncn1 [I-10],–,–,100,–,–,100,100,–,80 to 100,80 to 100,–,80 to 100,–,–,–
C[C@H](NC(=O)c1cc(OC(F)(F)F)cc(S(=O)(=O)C(F)F)c1)c1ncnn1-c1cc(C#N)ncn1 [I-20],100,–,100,–,–,100,–,–,80 to 100,80 to 100,–,80 to 100,80 to 100,–,–
C[C@H](NC(=O)c1cc(OC(F)(F)F)cc(C2(C#N)CC2)c1)c1nc(C2CC2)nn1-c1cc(C(N)=O)ncn1 [I-33],–,–,100,–,–,100,100,100,80 to 100,80 to 100,100,80 to 100,80 to 100,80 to 100,80 to 100
